# According to patent publication US20240009304A1, “USE OF NGF ANTIBODY IN CIPN PAIN” (Dartsbio Pharmaceuticals Ltd., priority 2020, published 2024):
# Where “and” joins values, the source holds several entries; their conditions need not be identical. Equal entries are not always repeated.
# Experiments:
# Type in all cases: in vivo
# [1] = system: vincristine-induced neuropathic pain model in SD rats; test: acetone cold allodynia, vincristine-induced neuropathic pain model; conditions: s.c.
# Description: (§1) All female SD rats were measured on day −5 (D-5) and day −4 (D-4) for basal values of von Frey mechanical allodynia and acetone cold allodynia (the day on formally establishing the model with paclitaxel administration was recorded as DO). SD rats were randomly divided into 5 groups according to body weight, which were blank control group, vehicle control (Vehicle control), s.c., D-3/D3/D9 group, DS002 0.1 mg/kg, s.c., D-3/D3/D9 group, DS002 0.5 mg/kg, s.c., D-3/D3/D9 group, DS002 2.5 mg/kg, s.c., D-3/D3/D9 group, respectively. Except for the blank control group, the other groups of animals were injected intraperitoneally with a chemotherapeutic agent solution on DO, D2, D4 and D6, respectively, to establish a chemotherapeutic agent-induced neuropathic pain model in SD rats. Wherein, von Frey is a stimulating material used in the measurement method of mechanical stimulation pain threshold; acetone is a stimulating substance used in the measurement method of cold pain threshold.
# (§2) Except for the blank control group, the other four groups were administered subcutaneously with DS002 on D-3, D3 and D9, respectively, and the von Frey echanical allodynia and acetone cold allodynia were measured on D7, D14 and D8, D15, respectively. The mechanical paw withdrawal threshold and the score and frequency of acetone-induced foot withdrawal behavior at the corresponding time point were recorded (for testing and calculation methods, see Yoon et al., pain, 59(3), 369-376. & Flatters et al., pain, 2004, 109 (1-2):150-161).
# (§3) With reference to the above-mentioned experimental method and Example 1, except for the blank control group, the other groups of animals were injected intraperitoneally with a vincristine solution (0.1 mg/kg) from DO to D9, respectively, to establish a vincristine-induced neuropathic pain model in SD rats, namely, the CIPN pain model.
# [2] = system: cisplatin-induced neuropathic pain model in SD rats; test: von Frey mechanical allodynia, cisplatin-induced neuropathic pain model; conditions: for Mean value of mechanical paw withdrawal threshold: s.c.
# Description: as §1, §2
# (§4) With reference to the above-mentioned experimental method and Example 1, except for the blank control group, the animals of other groups were injected with a cisplatin solution (4 mg/kg) in the tail veins on DO and D6, respectively, to establish a cisplatin-induced neuropathic pain model in SD rats, namely the CIPN pain model.
# (§5) The basal values of the mechanical allodynia and cold allodynia were measured on day 5 (D-5) and day 4 (D-4) before modeling. On day 3 (D-3), the normal rats were divided into 4 groups by random block method and administered according to their body weight. The average weight of animals in each group after grouping was about 250 g. As for the animals of blank control group, vehicle control, s.c., D-3/D3/D9/D16 group, test sample DS002, 0.02 mg/kg, s.c., D-3/D3/D9/D16 group and test sample DS002, 0.5 mg/kg, s.c., D-3/D3/D9/D16 group, the basal values of mechanical paw withdrawal threshold were 26.00±0.00 g, 23.95±1.63 g, 23.50±1.68 g and 22.77±1.71 g, respectively; the basal values of acetone-induced foot withdrawal behavior total score were 0.50±0.34, 0.55±0.31, 0.27±0.19 and 0.55±0.28, respectively; the basal values of the response frequency were 6.00±4.27%, 7.27±4.07%, 3.64±2.44% and […], respectively.
# [3] = system: cisplatin-induced neuropathic pain model in SD rats; test: acetone cold allodynia, cisplatin-induced neuropathic pain model; conditions: for Mean value of response frequency of cold allodynia / Mean value of acetone-induced foot withdrawal behavior total score: s.c.
# Description: as §2, §4, §5
# [4] = system: paclitaxel-induced neuropathic pain model in SD rats; test: acetone cold allodynia, paclitaxel-induced neuropathic pain model; conditions: s.c.
# Description: as §1, §2
# (§6) The above experimental method was used, except for the blank control group, the other groups of animals were injected intraperitoneally with a chemotherapeutic agent solution (4 mg/kg) on DO, D2, D4 and D6, respectively, to establish a paclitaxel-induced neuropathic pain model in SD rats, namely the CIPN pain model.
# [5] = system: vincristine-induced neuropathic pain model in SD rats; test: von Frey mechanical allodynia, vincristine-induced neuropathic pain model; conditions: for Mean value of mechanical paw withdrawal threshold: s.c.
# Description: as §1, §2, §3
# [6] = system: paclitaxel-induced neuropathic pain model in SD rats; test: von Frey mechanical allodynia, paclitaxel-induced neuropathic pain model; conditions: for Mean value of mechanical paw withdrawal threshold: s.c., D-3/D3/D9
# Description: as §1, §2, §6
# [7] = 0.1 mg/kg, D-3/D3/D9, D-4 basal value before administration
# [8] = 0.5 mg/kg, D-3/D3/D9, D-4 basal value before administration
# [9] = 2.5 mg/kg, D-3/D3/D9, D-4 basal value before administration
# [10] = 0.5 mg/kg, D-3/D3/D9/D16, D22, listed as D5002
substance,measurement,setting,value
"DS002: humanized recombinant monoclonal antibody targeting nerve growth factor, IgG1 subtype, kappa light chain; heavy/light chain SEQ ID NO:3 and 4",Mean value of response frequency of cold allodynia,"[1]; 0.1 mg/kg, D-3/D3/D9, D8",58.00±6.96% and 58.00%
same,Mean value of acetone-induced foot withdrawal behavior total score,"[1]; 0.1 mg/kg, D-3/D3/D9, D15",3.00
same,Mean value of response frequency of cold allodynia,"[1]; 0.1 mg/kg, D-3/D3/D9, D15",42.00%
same,Mean value of acetone-induced foot withdrawal behavior total score,[1]; [7],0.10
same,Mean value of response frequency of cold allodynia,[1]; [7],2.00%
same,Mean value of response frequency of cold allodynia,"[1]; 0.5 mg/kg, D-3/D3/D9, D8",44.00±7.77% and 44.00%
same,Mean value of acetone-induced foot withdrawal behavior total score,"[1]; 0.5 mg/kg, D-3/D3/D9, D15",2.80
same,Mean value of response frequency of cold allodynia,"[1]; 0.5 mg/kg, D-3/D3/D9, D15",34.00%
same,Mean value of acetone-induced foot withdrawal behavior total score,[1]; [8],0.30
same,Mean value of response frequency of cold allodynia,[1]; [8],4.00%
same,Mean value of response frequency of cold allodynia,"[1]; 2.5 mg/kg, D-3/D3/D9, D8",44.00±4.99% and 44.00%
same,Mean value of acetone-induced foot withdrawal behavior total score,"[1]; 2.5 mg/kg, D-3/D3/D9, D15",1.80
same,Mean value of response frequency of cold allodynia,"[1]; 2.5 mg/kg, D-3/D3/D9, D15",24.00%
same,Mean value of acetone-induced foot withdrawal behavior total score,[1]; [9],0.30
same,Mean value of response frequency of cold allodynia,[1]; [9],4.00%
same,Mean value of mechanical paw withdrawal threshold,"[2]; 0.02 mg/kg, D-3/D3/D9/D16, D7",8.87 ± 1.98 g
same,Mean value of mechanical paw withdrawal threshold,"[2]; 0.02 mg/kg, D-3/D3/D9/D16, D14",7.22 ± 0.77 g
same,Mean value of mechanical paw withdrawal threshold,"[2]; 0.02 mg/kg, D-3/D3/D9/D16, D21",14.22 ± 2.63 g
same,Mean value of mechanical paw withdrawal threshold,"[2]; 0.02 mg/kg, D-3/D3/D9/D16, D-5 basal value before administration",23.50 ± 1.68 g
same,Mean value of mechanical paw withdrawal threshold,"[2]; 0.5 mg/kg, D-3/D3/D9/D16, D7",7.62 ± 1.18 g
same,Mean value of mechanical paw withdrawal threshold,"[2]; 0.5 mg/kg, D-3/D3/D9/D16, D14",10.73 ± 1.60 g
same,Mean value of mechanical paw withdrawal threshold,"[2]; 0.5 mg/kg, D-3/D3/D9/D16, D21",16.37 ± 2.36 g
same,Mean value of mechanical paw withdrawal threshold,"[2]; 0.5 mg/kg, D-3/D3/D9/D16, D-5 basal value before administration",22.77 ± 1.71 g
same,mechanical paw withdrawal threshold of rats compared with the Vehicle control,[2]; summary in words,significantly increased
same,Mean value of response frequency of cold allodynia,"[3]; 0.02 mg/kg, D-3/D3/D9/D16, D8",7.27±4.07% and 7.27%
same,Mean value of response frequency of cold allodynia,"[3]; 0.02 mg/kg, D-3/D3/D9/D16, D15",16.36±5.92% and 16.36%
same,Mean value of response frequency of cold allodynia,"[3]; 0.02 mg/kg, D-3/D3/D9/D16, D22",9.09±4.15% and 9.09%
same,Mean value of response frequency of cold allodynia,"[3]; 0.02 mg/kg, D-3/D3/D9/D16, D-4 basal value before administration",3.64±2.44% and 3.64%
same,Mean value of response frequency of cold allodynia,"[3]; 0.5 mg/kg, D-3/D3/D9/D16, D8",7.27±4.07% and 7.27%
same,Mean value of response frequency of cold allodynia,"[3]; 0.5 mg/kg, D-3/D3/D9/D16, D15",7.27±4.07% and 7.27%
same,Mean value of acetone-induced foot withdrawal behavior total score,"[3]; 0.5 mg/kg, D-3/D3/D9/D16, D22",0.73
same,Mean value of response frequency of cold allodynia,"[3]; 0.5 mg/kg, D-3/D3/D9/D16, D22",10.91%
same,Mean value of acetone-induced foot withdrawal behavior total score,[3]; [10],0.73±0.30
same,Mean value of response frequency of cold allodynia,[3]; [10],10.91±4.15%
same,Mean value of response frequency of cold allodynia,"[3]; 0.5 mg/kg, D-3/D3/D9/D16, D-4 basal value before administration",5.45±2.82% and 5.45%
same,cold pain threshold of the rats compared with the vehicle control,[3]; summary in words,not significantly improved
same,Mean value of acetone-induced foot withdrawal response score,"[4]; 0.1 mg/kg, D-3/D3/D9, D8",3.70
same,Mean value of response frequency of cold allodynia,"[4]; 0.1 mg/kg, D-3/D3/D9, D8",63.50%
same,Mean value of acetone-induced foot withdrawal response score,"[4]; 0.1 mg/kg, D-3/D3/D9, D15",1.80
same,Mean value of response frequency of cold allodynia,"[4]; 0.1 mg/kg, D-3/D3/D9, D15",33.40%
same,Mean value of acetone-induced foot withdrawal response score,[4]; [7],0.60
same,Mean value of response frequency of cold allodynia,[4]; [7],13.40%
same,Mean value of acetone-induced foot withdrawal response score,"[4]; 0.5 mg/kg, D-3/D3/D9, D8",2.50
same,Mean value of response frequency of cold allodynia,"[4]; 0.5 mg/kg, D-3/D3/D9, D8",50.10%
same,Mean value of acetone-induced foot withdrawal response score,"[4]; 0.5 mg/kg, D-3/D3/D9, D15",1.00
same,Mean value of response frequency of cold allodynia,"[4]; 0.5 mg/kg, D-3/D3/D9, D15",23.20%
same,Mean value of acetone-induced foot withdrawal response score,[4]; [8],0.50
same,Mean value of response frequency of cold allodynia,[4]; [8],13.30%
same,Mean value of acetone-induced foot withdrawal response score,"[4]; 2.5 mg/kg, D-3/D3/D9, D8",3.30
same,Mean value of response frequency of cold allodynia,"[4]; 2.5 mg/kg, D-3/D3/D9, D8",70.0%
same,Mean value of acetone-induced foot withdrawal response score,"[4]; 2.5 mg/kg, D-3/D3/D9, D15",0.70
same,Mean value of response frequency of cold allodynia,"[4]; 2.5 mg/kg, D-3/D3/D9, D15",19.90%
same,Mean value of acetone-induced foot withdrawal response score,[4]; [9],0.90
same,Mean value of response frequency of cold allodynia,[4]; [9],19.90%
same,Mean value of mechanical paw withdrawal threshold,"[5]; 0.1 mg/kg, D-3/D3/D9, D7",7.02 ± 1.05 g
same,Mean value of mechanical paw withdrawal threshold,"[5]; 0.1 mg/kg, D-3/D3/D9, D14",9.76 ± 1.10 g
same,Mean value of mechanical paw withdrawal threshold,"[5]; 0.1 mg/kg, D-3/D3/D9, D-5 basal value before administration",15.00 ± 0.00 g
same,Mean value of mechanical paw withdrawal threshold,"[5]; 0.5 mg/kg, D-3/D3/D9, D7",8.20 ± 1.78 g
same,Mean value of mechanical paw withdrawal threshold,"[5]; 0.5 mg/kg, D-3/D3/D9, D14",11.00 ± 0.94 g
same,Mean value of mechanical paw withdrawal threshold,"[5]; 0.5 mg/kg, D-3/D3/D9, D-5 basal value before administration",15.00 ± 0.00 g
same,Mean value of mechanical paw withdrawal threshold,"[5]; 2.5 mg/kg, D-3/D3/D9, D7",8.43 ± 0.92 g
same,Mean value of mechanical paw withdrawal threshold,"[5]; 2.5 mg/kg, D-3/D3/D9, D14",13.31 ± 0.76 g
same,Mean value of mechanical paw withdrawal threshold,"[5]; 2.5 mg/kg, D-3/D3/D9, D-5 basal value before administration",14.16 ± 0.60 g
same,mechanical paw withdrawal threshold of rats compared with the Vehicle control,[5]; summary in words,significantly increased
same,Mean value of mechanical paw withdrawal threshold,"[6]; 0.1 mg/kg, D7, paclitaxel model",8.90 ± 1.20 g
same,Mean value of mechanical paw withdrawal threshold,"[6]; 0.1 mg/kg, D14, paclitaxel model",10.55 ± 1.04 g
same,Mean value of mechanical paw withdrawal threshold,"[6]; 0.1 mg/kg, D-5 basal value before administration, paclitaxel model",13.48 ± 1.03 g
same,Mean value of mechanical paw withdrawal threshold,"[6]; 0.5 mg/kg, D7, paclitaxel model",10.40 ± 1.33 g
same,Mean value of mechanical paw withdrawal threshold,"[6]; 0.5 mg/kg, D14, paclitaxel model",10.94 ± 1.16 g
same,Mean value of mechanical paw withdrawal threshold,"[6]; 0.5 mg/kg, D-5 basal value before administration, paclitaxel model",13.25 ± 0.98 g
same,Mean value of mechanical paw withdrawal threshold,"[6]; 2.5 mg/kg, D7, paclitaxel model",7.74 ± 1.19 g
same,Mean value of mechanical paw withdrawal threshold,"[6]; 2.5 mg/kg, D14, paclitaxel model",12.30 ± 0.94 g
same,Mean value of mechanical paw withdrawal threshold,"[6]; 2.5 mg/kg, D-5 basal value before administration, paclitaxel model",13.50 ± 0.82 g
same,pain threshold,"[6]; 0.1-2.5 mg/kg subcutaneously every 6 days for 3 consecutive times, paclitaxel-induced rat neuropathic pain model, summary in words",preventatively increased
same,mechanical paw withdrawal threshold of rats compared with the Vehicle control,"[6]; paclitaxel model, summary in words",significantly increased
